Results taken from patent publication US20230263822A1, “MODULATION OF FACTOR 11 EXPRESSION” (Ionis Pharmaceuticals, Inc., priority 2008, published 2023).
Strand notation (5' to 3'): a small letter for the sugar, then the base; units joined by * are phosphorothioate-linked, units joined directly phosphodiester-linked; [ ] holds rarer units or linkages, { } end groups; capitals alone tell only the bases. e = 2'-O-(2-methoxyethyl) (MOE); [5mC] = 5-methylcytosine; d = 2'-deoxy (DNA)

Columns and labels:
Type in all cases: cell-based
[1] = test system: human Factor 11 mRNA; assay: Antisense inhibition of human Factor 11 in HepG2 cells, electroporation, 8,000 nM (Example 30); settings: electroporation, 8,000 nM antisense oligonucleotide
Protocol: These microwalk gapmers were tested in vitro. Cultured HepG2 cells at a density of 20,000 cells per well were transfected using electroporation with 8,000 nM antisense oligonucleotide. After a treatment period of approximately 24 hours, RNA was isolated from the cells and Factor 11 mRNA levels were measured by quantitative real-time PCR. Factor 11 mRNA levels were adjusted according to total RNA content, as measured by RIBOGREEN. Results are presented as percent inhibition of Factor 11, relative to untreated control cells.
The chimeric antisense oligonucleotides in Table 44 were designed as 5-10-5 MOE, 5-8-5 and 6-8-6 MOE gapmers. The first two listed gapmers in Table 44 are the original gapmers (ISIS 416850 and ISIS 416858) from which ISIS 445493-445543 were designed via microwalk, and are designated by an asterisk. The 5-10-5 gapmers are 20 nucleotides in length, wherein the central gap segment is comprised of ten 2′-deoxynucleotides and is flanked on both sides (in the 5′ and 3′ directions) by wings comprising five nucleotides each. The 5-8-5 gapmers are 18 nucleotides in length, wherein the central gap segment is comprised of eight 2′-deoxynucleotides and is flanked on both sides (in the 5′ and 3′ directions) by wings comprising five nucleotides each. The 6-8-6 gapmers are 20 nucleotides in length, wherein the central gap segment is comprised of eight 2′-deoxynucleotides and is flanked on both sides (in the 5′ and 3′ directions) by wings comprising six nucleotides each. For each of the motifs (5-10-5, 5-8-5 and 6-8-6), each nucleotide in the 5′ wing segment and each nucleotide in the 3′ wing segment has a 2′-MOE modification. The internucleoside linkages throughout each gapmer are phosphorothioate (P=S) linkages. All cytidine residues throughout each gapmer are 5-methylcytidines. “Human Target start site” indicates the 5′-most nucleotide to which the gapmer is targeted in the human sequence. “Human Target stop site” indicates the 3′-most nucleotide to which the gapmer is targeted in the human sequence. Each gapmer listed in Table 44 is targeted to SEQ ID NO: 1 (GENBANK Accession No. NM_000128.3). Each gapmer is Table 44 is also fully cross-reactive with the rhesus monkey Factor 11 gene sequence, designated herein as SEQ ID NO: 274 (exons 1-15 GENBANK Accession No. NW_001118167.1). ‘Rhesus monkey start site’ indicates the 5′-most nucleotide to which the gapmer is targeted in the rhesus monkey sequence. ‘Rhesus monkey stop site’ indicates the 3′-most nucleotide to which the gapmer is targeted to the rhesus monkey sequence.

[2] = test system: human Factor 11 mRNA; assay: Antisense inhibition of human Factor 11 in HepG2 cells, lipofectin, 75 nM (Example 1); settings: 75 nM antisense oligonucleotide, ~24 h, relative to untreated control cells, gapmers targeted to SEQ ID NO: 1
Procedure, shortened: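 HepG2 cells transfected via lipofectin with 75 nM antisense oligonucleotide (5-10-5 MOE gapmers, 20-mers, phosphorothioate, 5-methylcytidines), treated ~24 h. Factor 11 mRNA quantified by real-time PCR, normalised to RIBOGREEN total RNA; percent inhibition versus untreated cells.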

[3] = test system: human Factor 11 mRNA; assay: Dose-dependent antisense inhibition of human Factor 11 in HepG2 cells, lipofectin 9.375-150 nM (Example 2); settings: ~16 h
Protocol: Cells were plated at a density of 10,000 cells per well and transfected using lipofectin reagent with 9.375 nM, 18.75 nM, 37.5 nM, 75 nM, and 150 nM concentrations of antisense oligonucleotide, as specified in Table 3. After a treatment period of approximately 16 hours, RNA was isolated from the cells and Factor 11 mRNA levels were measured by quantitative real-time PCR. Human Factor 11 primer probe set RTS 2966 (forward sequence: […], incorporated herein as SEQ ID NO: 3; reverse sequence: […], incorporated herein as SEQ ID NO: 4; probe sequence: TTGTCTACTGAAGCACACCCAAACAGGGAX, incorporated herein as SEQ ID NO: 5) was used to measure mRNA levels. Factor 11 mRNA levels were adjusted according to total RNA content, as measured by RIBOGREEN. Results are presented as percent inhibition of Factor 11, relative to untreated control cells.

[4] = test system: human Factor 11 mRNA; assay: Antisense inhibition of human Factor 11 in HepG2 cells by microwalk gapmers, lipofectin, 75 nM (Example 3)
Procedure, shortened: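 HepG2 cells (10,000/well) were transfected via lipofectin with 75 nM 20-mer MOE gapmers (phosphorothioate, 5-methyl-C) for about 24 h. Factor 11 mRNA was measured by qRT-PCR, normalized to RIBOGREEN total RNA, and given as percent inhibition versus untreated cells.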

[5] = test system: human Factor 11 mRNA; assay: Dose-dependent inhibition of human Factor 11 in HepG2 cells, electroporation 123.46-10,000 nM (Example 31)
Protocol: Cells were plated at a density of 20,000 cells per well and transfected using electroporation with 123.46 nM, 370.37 nM, 1,111.11 nM, 3,333.33 nM and 10,000 nM concentrations of antisense oligonucleotide, as specified in Table 45. After a treatment period of approximately 16 hours, RNA was isolated from the cells and Factor 11 mRNA levels were measured by quantitative real-time PCR. Human Factor 11 primer probe set RTS 2966 was used to measure mRNA levels. Factor 11 mRNA levels were adjusted according to total RNA content, as measured by RIBOGREEN. Results are presented as percent inhibition of Factor 11, relative to untreated control cells.

[6] = HepG2 cells, lipofectin, gapmers targeted to nucleobases 1275 to 1318 of SEQ ID NO: 1

Substance: 445521 (antisense e[5mC]*eA*e[5mC]*eA*eG*dT*dT*dT*d[5mC]*dT*dG*dG*d[5mC]*eA*eG*eG*e[5mC]*e[5mC]) [compound 445521]
- Percent inhibition of human Factor 11 mRNA levels [1]: 87%

Substance: 445502 (antisense e[5mC]*eA*eT*eT*eG*eG*dT*dG*d[5mC]*dA*d[5mC]*dA*dG*dT*eT*eT*e[5mC]*eT*eG*eG) [compound 445502]
- Percent inhibition of human Factor 11 mRNA levels [1]: 83%

Substance: 412212 (antisense e[5mC]*e[5mC]*eG*eG*eG*dA*dT*dG*dA*dT*dG*dA*dG*dT*dG*e[5mC]*eA*eG*eA*eT) [compound 412212]
- % inhibition [2]: 88%
- percent inhibition of Factor 11 at 9.375 nM [3]: 28%
- percent inhibition of Factor 11 at 18.75 nM [3]: 45%
- percent inhibition of Factor 11 at 37.5 nM [3]: 59%
- percent inhibition of Factor 11 at 75 nM [3]: 73%
- percent inhibition of Factor 11 at 150 nM [3]: 88%
- IC50 [3]: 25 nM
- % inhibition ([4]; HepG2 cells, lipofectin, gapmers targeted to nucleobases 1018 to 1042 of SEQ ID NO: 1): 89%

Substance: 445539 (antisense e[5mC]*eA*eG*e[5mC]*eG*dG*dA*d[5mC]*dG*dG*d[5mC]*dA*dT*eT*eG*eG*eT*eG) [compound 445539]
- Percent inhibition of human Factor 11 mRNA levels [1]: 79%

Substance: 445500 (antisense eT*eT*eG*eG*eT*eG*d[5mC]*dA*d[5mC]*dA*dG*dT*dT*dT*e[5mC]*eT*eG*eG*e[5mC]*eA) [compound 445500]
- Percent inhibition of human Factor 11 mRNA levels [1]: 81%

Substance: 413469 (antisense eT*eG*e[5mC]*e[5mC]*e[5mC]*dT*dT*d[5mC]*dA*dT*dG*dT*d[5mC]*dT*dA*eG*eG*eT*e[5mC]*e[5mC]) [compound 413469]
- % inhibition [2]: 84%
- percent inhibition of Factor 11 at 9.375 nM [3]: 24%
- percent inhibition of Factor 11 at 18.75 nM [3]: 33%
- percent inhibition of Factor 11 at 37.5 nM [3]: 53%
- percent inhibition of Factor 11 at 75 nM [3]: 70%
- percent inhibition of Factor 11 at 150 nM [3]: 84%
- IC50 [3]: 33 nM
- % inhibition ([4]; HepG2, lipofectin, ~24 h, gapmers targeted to nucleobases 656 to 704 of SEQ ID NO: 1): 86%

Substance: 445512 (antisense e[5mC]*eA*eG*e[5mC]*eG*eG*dA*d[5mC]*dG*dG*d[5mC]*dA*dT*dT*eG*eG*eT*eG*e[5mC]*eA) [compound 445512]
- Percent inhibition of human Factor 11 mRNA levels [1]: 79%

Substance: 416853 (antisense eT*eT*eG*eG*eT*dG*d[5mC]*dA*d[5mC]*dA*dG*dT*dT*dT*d[5mC]*eT*eG*eG*e[5mC]*eA) [compound 416853]
- % inhibition [4, 6]: 91%
- Percent inhibition of human Factor 11 mRNA levels [1]: 84%

Substance: 416857 (antisense e[5mC]*eG*eG*e[5mC]*eA*dT*dT*dG*dG*dT*dG*d[5mC]*dA*d[5mC]*dA*eG*eT*eT*eT*e[5mC]) [compound 416857]
- % inhibition [4, 6]: 92%
- Percent inhibition of human Factor 11 mRNA levels [1]: 91%
- Percent inhibition of Factor 11 mRNA at 123.47 nM ([5]; electroporation, 123.47 nM, approx. 16 hours, relative to untreated control cells): 2%
- Percent inhibition of Factor 11 mRNA at 370.37 nM ([5]; electroporation, 370.37 nM, approx. 16 hours, relative to untreated control cells): 20%
- Percent inhibition of Factor 11 mRNA at 1,111.11 nM ([5]; electroporation, 1,111.11 nM, approx. 16 hours, relative to untreated control cells): 35%
- Percent inhibition of Factor 11 mRNA at 3,333.33 nM ([5]; electroporation, 3,333.33 nM, approx. 16 hours, relative to untreated control cells): 62%
- Percent inhibition of Factor 11 mRNA at 10,000.0 nM ([5]; electroporation, 10,000.0 nM, approx. 16 hours, relative to untreated control cells): 72%
- IC50 ([5]; electroporation, Factor 11 mRNA expression): 2300 nM
